Source: patent US20080255078A1, “Triphenylethylene Compounds Useful as Selective Estrogen Receptor Modulators” (priority 2005, published 2008)

Row | melting point [°C] | Compound
1 | 280 to 281 | CCC(=C(c1ccc(O)cc1)c1ccc(O)cc1)c1cccc(/C=C/C(=O)O)c1 [Example 1, (2E)-3-{3-[1-Ethyl-2,2-bis(4-hydroxyphenyl)ethenyl]phenyl}-2-propenoic acid]
2 | 173 to 174 | CCC(=C(c1ccc(O)cc1)c1ccc(O)cc1)c1cccc(-c2c(C)noc2C)c1 [Example 3, 4,4′-{2-[3-(3,5-Dimethyl-4-isoxazolyl)phenyl]-1-butene-1,1-diyl}diphenol]
